Test results from patent US20220323429A1, “PIMAVANSERIN FOR TREATING NEURODEGENERATIVE DISEASES” (ACADIA Pharmaceuticals Inc., priority 2019, published 2022).

Assay: Nasogastric Tube Compatibility Study, impurities (HPLC)
Type: physicochemical
Procedure: Analytical HPLC Compatibility Study experiments (Example 2) were performed on Agilent 1200 Series, or equivalent; Waters XBridge C18 column, 5 μm 150×4.6 mm; mobile phase: Solvent A: 50 mM ammonium bicarbonate, pH 8.0; Solvent B: acetonitrile/methanol, 80:20 (v/v); Flow rate: 1 mL/min; Inj. Volume 60 μL; Autosampler Temp.: 5° C.; column temperature: 40° C.; the pooled limit of quantitation was 0.05% of 0.68 mg/mL; detection UV at 210 nm; sample concentration (as free base) assay: 0.034 mg/mL, impurity: 0.34 mg/mL; standard concentration (as free base) 0.034 mg/mL; PLOQ Std. 0.05% of 0.34 mg/mL; SST solution, 1% of 0.34 mg/mL (Impurities A, C, D, E, F, and G); diluent for standards 0.1N HCl; diluent for samples 0.1N HCl; run time, 40 min; gradient method: 0 min mobile phase A (90%) and mobile phase B (10%) to 30 min mobile phase A (0%), and mobile phase B (100%); then 30.1 min to 40 min mobile phase A (90%), mobile phase B (10%).
Three samples of pimavanserin in water (n=3) were prepared as follows. The content of one capsule was dropped into a 100 mL bottle, and the empty capsule shell was discarded. Approximately 40 mL of water was added into the bottle, and the bottle was swirled until the contents were disintegrated. Syringes were secured approximately 1 meter above the benchtop, and the plungers were removed. The Hydromer coating on the weighted top of the NG tube was activated by submerging the weight assembly in water for 10 seconds. The NG tube was flushed with 20 mL of water, and remaining water in the syringe and the NG tube was expelled with the help of the syringe plunger. The weighted tip of the NG tube was placed into 100 mL volumetric flasks on the benchtop.
For each sample, the aqueous dispersion was slowly poured into the syringe, allowing it to drain through the NG tube under gravity into the 100 mL collection volumetric flask. The original bottle containing the aqueous suspension of pimavanserin capsules was rinsed twice with 15 mL of water into the same syringe/NG tube system. The dispersion remaining in the syringe and NG tube was expelled with the help of the syringe plunger. Each flask was diluted to volume with 0.33N HCl (to make a final 0.1 N HCl concentration in the flask). The samples were sonicated for 15 minutes with intermediate shaking. A stir bar was added to the flask and the solution was stirred for 2 hours. An aliquot of each solution was centrifuged for 5 minutes at 10000 rom. The supernatant was transferred to a HPLC vial and injected for impurity analysis.
A “control” sample was prepared following the sample preparation procedure described above except it was not passed through a syringe/NG system. The content of one capsule was dropped into a 100 mL volumetric flask, and the empty capsule shell was discarded. Next 70 mL of water was added into the flask and swirled until the contents were completely disintegrated. The flask was diluted to volume with 0.33 N HCl (to make final 0.1N HCl concentration). The sample was sonicated for 15 minutes with intermediate shaking. A stir bar was dropped into the flask, and the solution was stirred for 2 hours. An aliquot was taken and centrifuged for 5 minutes at 10000 rpm. The supernatant was transferred to a HPLC vial and injected for impurity analysis.

Imp-D (NG Tube Control): 0.13 % w/w
Impurity RRT-0.36 (NG Tube Control): 0.05 % w/w
Impurity RRT-0.54 (NG Tube Control): 0.07 % w/w
Impurity RRT-0.96 (NG Tube Control): 0.06 % w/w
Impurity RRT-0.99 (NG Tube Control): 0.07 % w/w
Total degradation products and impurities (NG Tube Control): 0.38 % w/w
Imp-D (NG Tube Mean (n = 3)): 0.13 % w/w
Impurity RRT-0.36 (NG Tube Mean (n = 3)): 0.06 % w/w
Impurity RRT-0.54 (NG Tube Mean (n = 3)): 0.07 % w/w
Impurity RRT-0.85 (NG Tube Mean (n = 3)): 0.05 % w/w
Impurity RRT-0.96 (NG Tube Mean (n = 3)): 0.06 % w/w
Impurity RRT-0.99 (NG Tube Mean (n = 3)): 0.06 % w/w
Impurity RRT-1.11 (NG Tube Mean (n = 3)): 0.05 % w/w
Total degradation products and impurities (NG Tube Mean (n = 3)): 0.48 % w/w
Imp-D (NG Tube N = 1): 0.13 % w/w
Impurity RRT-0.36 (NG Tube N = 1): 0.05 % w/w
Impurity RRT-0.54 (NG Tube N = 1): 0.07 % w/w
Impurity RRT-0.85 (NG Tube N = 1): 0.05 % w/w
Impurity RRT-0.96 (NG Tube N = 1): 0.05 % w/w
Impurity RRT-0.99 (NG Tube N = 1): 0.07 % w/w
Total degradation products and impurities (NG Tube N = 1): 0.42 % w/w
Imp-D (NG Tube N = 2): 0.14 % w/w
Impurity RRT-0.36 (NG Tube N = 2): 0.06 % w/w
Impurity RRT-0.54 (NG Tube N = 2): 0.07 % w/w
Impurity RRT-0.96 (NG Tube N = 2): 0.06 % w/w
Impurity RRT-0.99 (NG Tube N = 2): 0.07 % w/w
Impurity RRT-1.11 (NG Tube N = 2): 0.05 % w/w
Total degradation products and impurities (NG Tube N = 2): 0.45 % w/w
Imp-D (NG Tube N = 3): 0.13 % w/w
Impurity RRT-0.99 (NG Tube N = 3): 0.05 % w/w
Total degradation products and impurities (NG Tube N = 3): 0.18 % w/w
impurity profile of compatibility samples versus control sample (NG tube): matched
unknown impurities (stability or recovery portions of the studies): < 0.1%
Structure (SMILES): CC(C)COc1ccc(CNC(=O)N(Cc2ccc(F)cc2)C2CCN(C)CC2)cc1 [Pimavanserin, N-(4-Fluorophenylmethyl)-N-(1-methylpiperidin-4-yl)-N′-(4-(2-methylpropyloxy)phenylmethyl)carbamide]
